# Source: patent US20050118116A1, “Dental bleaching product” (UNIVERSITAT DE LES ILLES BALEARS, LABORATORIOS KIN, S.A., priority 1999, published 2005)
# Assays:
# [1] = speed with which a tetracycline solution is rendered colourless (spectrophotometer, 37° C.); type: biochemical; details: no peroxidase; high carbamide peroxide concentrations; FIG. 2
# Excerpt: The mouth wash consists of a 2.4% carbamide peroxide solution in 0.1 M phosphate buffer, pH 6.5 and on the other hand, a peroxidase solution (120 units of pyrogallol/ml) in 0.1 M phosphate buffer, pH 6.5 which is fed into the container in which the de-staining reaction is to take place, immediately after the mouth wash.
# The substance to be rendered colourless is tetracycline, which is solublised in water at a concentration of 0.015M. The maximum tetracycline absorption wavelength has been selected so as to monitor the de-staining speed. The de-staining speed is determined using a spectrophotometer which allows the absorption to be monitored continually, the reaction tray being thermostated at 37° C. The de-staining reaction speeds have been calculated from the relations between absorbency variation and the reaction time, and they have been expressed in nKat.
# The necessary quantities of tetracycline solution, the mouth wash and enzyme (in this order) are placed in the reaction tray to obtain the parameter combinations according to which it is intended to evaluate the enzyme bleaching capacity.
# [2] = tooth brightness factor before/after treatment (non-limiting example in the description); details: 1.5% carbamide peroxide, pH 6.5 phosphates; peroxidase 20 units pyrogallol/ml where present; 64% before treatment
compound,measurement,setting,value
NC(N)=O.OO [carbamide peroxide],carbamide peroxide concentration from which de-staining speed saturates,[1],approximately 0.70 M
same,brightness factor of a tooth after treatment,[2],64%
